For 3 compounds, Ki results are on record in ChEMBL document CHEMBL1129005 (Bioorg Med Chem Lett, 1996).

Experiment [1] addresses T1, Muscarinic acetylcholine receptor M1 (Homo sapiens, UniProt P11229).
T1 sequence (P11229 whole entry): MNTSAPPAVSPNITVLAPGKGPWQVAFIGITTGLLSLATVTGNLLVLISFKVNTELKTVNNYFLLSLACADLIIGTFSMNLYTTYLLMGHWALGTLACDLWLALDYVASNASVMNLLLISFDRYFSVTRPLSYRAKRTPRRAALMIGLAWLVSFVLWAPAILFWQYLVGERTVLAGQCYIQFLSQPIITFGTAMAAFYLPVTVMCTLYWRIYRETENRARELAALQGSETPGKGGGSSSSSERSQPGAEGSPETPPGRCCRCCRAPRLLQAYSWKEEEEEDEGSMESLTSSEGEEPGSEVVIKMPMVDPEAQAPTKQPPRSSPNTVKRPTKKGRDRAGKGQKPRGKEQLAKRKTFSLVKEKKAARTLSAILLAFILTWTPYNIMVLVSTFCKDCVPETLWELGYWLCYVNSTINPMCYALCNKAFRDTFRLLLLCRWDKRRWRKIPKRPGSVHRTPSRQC
Briefly: Compound was evaluated for displacement of [3H]QNB from human Muscarinic m1 receptor in CHO cells. In kind it is cell-based. (Loss of bound radioactivity is the signal in a displacement assay; it reports binding, not function.)

For experiment [2], the target named is T2, Muscarinic acetylcholine receptor M2 (Homo sapiens, UniProt P08172).
T2 sequence (P08172 whole entry): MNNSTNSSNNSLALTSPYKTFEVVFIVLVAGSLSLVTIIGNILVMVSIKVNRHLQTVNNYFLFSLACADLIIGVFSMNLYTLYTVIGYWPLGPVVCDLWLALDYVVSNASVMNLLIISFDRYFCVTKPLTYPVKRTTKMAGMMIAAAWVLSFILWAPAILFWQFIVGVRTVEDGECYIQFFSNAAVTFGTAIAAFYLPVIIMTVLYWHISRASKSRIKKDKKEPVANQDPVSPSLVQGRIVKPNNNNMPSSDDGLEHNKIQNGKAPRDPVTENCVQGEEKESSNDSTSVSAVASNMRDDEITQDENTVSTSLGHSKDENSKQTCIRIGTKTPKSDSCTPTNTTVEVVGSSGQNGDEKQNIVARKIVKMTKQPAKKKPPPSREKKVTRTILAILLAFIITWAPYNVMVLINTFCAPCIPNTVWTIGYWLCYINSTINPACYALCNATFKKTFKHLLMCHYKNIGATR
Briefly: Compound was evaluated for displacement of [3H]-QNB from human Muscarinic m2 receptor in CHO cells. The experiment is classed as cell-based.

pKi: −log10 of the molar value.

What is called pKi is the negative decadic logarithm of the Ki, by convention in mol/L. Higher therefore signals a low Ki. On to `CCCN(CCC)CC1CCCCN1CCNC(=O)N1c2ccccc2C(=O)Nc2cccnc21` (stereo unspecified), for which the pKi in experiment [1] is 7.91; in experiment [2] it was 8.28.

`CC1CCN(CC(=O)N2c3ccccc3C(=O)Nc3cccnc32)CC1`: the pKi is 7.08 in experiment [1] and 7.15 in experiment [2].

With `CCN(CC)CC1CCCCN1CC(=O)N1c2ccccc2C(=O)Nc2cccnc21` (stereo unspecified) [OTENZEPAD], the pKi in experiment [1] is 6.75; in experiment [2], 7.28.
